The target of experiment [1] is T1, human Branched Chain Amino Acid Aminotransferase cytosolic form (hBCATc) (Homo sapiens, UniProt P54687).
T1 construct: made in house; host or cells: E. coli BL21(DE3)
T1 sequence (P54687 1-386): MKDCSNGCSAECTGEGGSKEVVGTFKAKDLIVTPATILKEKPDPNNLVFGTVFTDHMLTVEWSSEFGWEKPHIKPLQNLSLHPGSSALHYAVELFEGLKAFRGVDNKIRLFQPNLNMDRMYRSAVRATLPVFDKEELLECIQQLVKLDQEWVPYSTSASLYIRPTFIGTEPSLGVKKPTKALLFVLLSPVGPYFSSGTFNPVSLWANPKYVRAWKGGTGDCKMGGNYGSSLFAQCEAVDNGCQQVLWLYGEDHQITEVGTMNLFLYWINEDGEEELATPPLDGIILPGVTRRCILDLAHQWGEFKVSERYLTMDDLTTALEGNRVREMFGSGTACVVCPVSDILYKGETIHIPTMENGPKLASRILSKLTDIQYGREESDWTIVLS
Kind of experiment: In vitro coupled enzyme assay (glutamate dehydrogenase, NADH formation), human BCATc. The class given is biochemical. The settings on record: recombinant human BCATc, 37° C., 25 mM phosphate buffer pH 7.8; several values in a cell = repeat determinations; read-out: RhBCATc. In a few lines:
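At 37 °C in 25 mM phosphate pH 7.8 with 2 mM DTT, 1.25 μg His-tag-purified E. coli-expressed BCAT transaminated 750 μM L-leucine with 500 μM α-ketoglutarate and 10 μM PLP. Glutamate was coupled via glutamate dehydrogenase (1 mM NAD+, 4 mM ADP) to NADH formation at 340 nm. Compounds were added in DMSO up to 5% v/v.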

Experiment [2] deals with T2, rat BCAT cytosolic form (Rattus norvegicus, UniProt P54690).
T2 construct: made in house; host or cells: E. coli BL21(DE3)
T2 sequence (P54690 1-411): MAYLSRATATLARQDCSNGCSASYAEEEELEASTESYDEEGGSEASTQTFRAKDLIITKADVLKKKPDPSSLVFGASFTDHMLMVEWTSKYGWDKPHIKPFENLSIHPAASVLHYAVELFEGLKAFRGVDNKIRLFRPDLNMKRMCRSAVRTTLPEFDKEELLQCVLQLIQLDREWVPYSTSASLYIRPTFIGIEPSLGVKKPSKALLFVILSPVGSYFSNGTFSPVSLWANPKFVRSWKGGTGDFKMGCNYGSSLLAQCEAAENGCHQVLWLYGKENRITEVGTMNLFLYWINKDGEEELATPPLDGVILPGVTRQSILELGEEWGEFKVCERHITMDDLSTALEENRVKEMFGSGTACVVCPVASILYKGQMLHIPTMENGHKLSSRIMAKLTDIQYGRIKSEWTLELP
The experiment is described as follows: In vitro coupled enzyme assay (glutamate dehydrogenase, NADH formation), rat BCATc. The settings on record: recombinant rat BCATc, 37° C., 25 mM phosphate buffer pH 7.8; several values in a cell = repeat determinations; read-out: RrBCATc. The class given is biochemical. The procedure: In vitro enzyme assay—human Branched Chain Amino Acid Aminotransferase cytosolic form (hBCATc) and mitochondrial form (hBCATm) as well as rat BCAT cytosolic form were assayed at 37° C. in 25 mM phosphate buffer pH 7.8. In addition, 2 mM DTT and 12.5 mM […] were added to the assay mixture. A coupling enzyme assay was used to monitor the production of glutamate. The formation of NADH from NAD+ at […] was followed on a 96-well plate Molecular Devices plate reader.
The following components were used in this coupled assay: 4 mM ADP, 1 mM NAD+, 750 μM L-Leucine, 500 μM α-ketoglutarate, 10 μM pyridoxal phosphate, 1 unit glutamate dehydrogenase, and 1.25 μg of the appropriate BCAT enzyme. Inhibitions by compounds were assayed by adding various concentrations to this coupled assay procedure as a DMSO stock up to a 5% v/v DMSO/buffer ratio.
Enzyme Preparation—humanBCATc and ratBCATc were expressed in BL21(DE3) cells. A growing culture of cells was induced with 1 mM IPTG at room temperature overnight. These cells were harvested by centrifugation at 10,000 g for 20 minutes. The supernatant was discarded, and the cells were stored at −80° C. until needed. The protein was purified by the following method. The cell paste was resuspended in extraction buffer (0.1 M phosphate, pH 8.0, with 0.01 M Tris-HCL and 5 mM TCEP and then lysed on a French Press at 1000 psi. The lysate was centrifuged at 10,000 g for 15 minutes, and the pellet was discarded. The supernatant was loaded onto a Hitrap Chelating column previously charged with 0.1 M NiSO4 and washed with 3 to 4 column volumes of extraction buffer. The column was then washed with 0.01 Tris, pH 7.5, 10% glycerol, 150 mM NaCl, 5 mM TCEP for two column volumes. The column was then further washed with two column volumes of 0.1 M phosphate, pH 6.0, 0.01 M Tris, 10% glycerol and 750 mM NaCl. Finally, the column was washed with two column volumes of the same buffer plus 50 mM imidazole. The BCAT enzyme was then eluted with the same buffer but with 350 mM imidazole. The eluant was then dialyzed overnight against 10 mM phosphate buffer pH 8.0, 10% glycerol, and 5 mM TCEP. The dialyzed protein was then loaded onto a Q-sepharose column and eluted using a salt gradient. Active fractions were collected and further purified on a Superose-12 column to yield pure BCAT protein.

The values below come from patent publication US20050004167A1, “Branched chain amino acid-dependent aminotransferase inhibitors and their use in the treatment of neurodegenerative diseases” (WARNER-LAMBERT COMPANY LLC, priority 2001, published 2005).

Values joined by “and” are separate entries in the source; they are usually repeats but may differ in a detail not shown here. Equal entries are not always repeated. Bounds are passed on as bounds.

With `COc1ccc2oc(C(=O)NNS(=O)(=O)c3ccccc3)c(OC(C)C)c2c1` [Example 57, 2-Benzofurancarboxylic acid, 5-methoxy-3-(1-methylethoxy), 2-(phenylsulfonyl)-hydrazide], the values for the IC50 in experiment [1] and in experiment [2] were 1.14 µM and 140 nM, respectively.

Turning to `COc1cc(OC)c2cc(C(=O)NNS(=O)(=O)c3ccccc3)oc2c1` [Example 60, 2-Benzofurancarboxylic acid, 4,6-dimethoxy-, 2-(phenylsulfonyl)hydrazide], the IC50 is 21.1 µM and 12.8 µM in experiment [1]; 110 nM in experiment [2].

For the molecule `COc1c(C(=O)NNS(=O)(=O)c2ccccc2)oc2c(OC)cccc12` [Example 61, 2-Benzofurancarboxylic acid, 3,7-dimethoxy-, 2-(phenylsulfonyl)hydrazide], the figures for the IC50 in experiment [1] and in experiment [2] were 1.3 µM and 100 nM, respectively.

With `COc1c(C(=O)NNS(=O)(=O)c2ccccc2C(F)(F)F)oc2c(OC)cccc12` [Example 62, 2-Benzofurancarboxylic acid, 3,7-dimethoxy-, 2-[(2-trifluoromethylphenyl)-sulfonyl]hydrazide], the results for the IC50 in experiment [1] and in experiment [2] were 4.77 µM and 330 nM, respectively.

Regarding `COc1c(C(=O)NNS(=O)(=O)c2ccc(F)cc2)oc2c(OC)cccc12` [Example 63, 2-Benzofurancarboxylic acid, 3,7-dimethoxy-, 2-[(4-fluorophenyl)sulfonyl]-hydrazide], the IC50 was 66.3 µM in experiment [1] and 5290 nM in experiment [2].

Turning to `COc1c(C(=O)NNS(=O)(=O)c2cccc(C)c2)oc2c(OC)cccc12` [Example 64, 2-Benzofurancarboxylic acid, 3,7-dimethoxy-, 2-[(3-methylphenyl)sulfonyl]-hydrazide], the values for the IC50 in experiment [1] and in experiment [2] were 3.31 µM and 190 nM, respectively.

`COc1c(C(=O)NNS(=O)(=O)c2ccccc2)oc2ccc(-c3ccccc3)cc12` [Example 65, 2-Benzofurancarboxylic acid, 3-methoxy-5-phenyl-, 2-(phenylsulfonyl)hydrazide]: the IC50 stood at 3.23 µM in experiment [1] and 100 nM in experiment [2].

As to `COc1c(C(=O)NNS(=O)(=O)c2ccccc2)oc2c(-c3ccccc3)cccc12` [Example 67, 2-Benzofurancarboxylic acid, 3-methoxy-7-phenyl-, 2-(phenylsulfonyl)hydrazide], the results for the IC50 in experiment [1] and in experiment [2] were 17.3 µM and 2400 nM, respectively.

As for `COc1c(C(=O)NNS(=O)(=O)c2ccccc2)oc2cc3ccccc3cc12` [Example 68, Naptho[2,3-b]furan-2-carboxylic acid, 3-methoxy-, 2-(phenylsulfonyl)hydrazide], the IC50 in experiment [1] worked out at 2.78 µM; in experiment [2], 310 nM.

Consider `O=C(NNS(=O)(=O)c1ccccc1Br)c1cc2cc(Cl)cc(Cl)c2o1` [Example 73, 2-Benzofurancarboxylic acid, 5,7-dichloro 2-[(2-bromophenyl)sulfonyl]-hydrazide], for which the IC50 in experiment [1] was determined as 14.4 µM; in experiment [2] it was 1890 nM.

With `Cc1ccc2oc(C(=O)NNS(=O)(=O)c3ccccc3)cc2c1` [Example 77, Benzofurancarboxylic acid, 5-methyl-, 2-(phenylsulfonyl)hydrazide], the IC50 is 6.15 µM and 3 µM in experiment [1]; 350 nM in experiment [2].

With `Cc1ccc2oc(C(=O)NNS(=O)(=O)c3ccccc3C(F)(F)F)cc2c1` [Example 79, 2-Benzofurancarboxylic acid, 5-methyl-, 2-[[2-(trifluoromethyl)phenyl]sulfonyl]-hydrazide], the IC50 in experiment [1] is 16.9 µM and 1.81 µM; in experiment [2], 220 nM.

Consider `Cc1cccc(S(=O)(=O)NNC(=O)c2cc3cc(C)ccc3o2)c1` [Example 80, 2-Benzofurancarboxylic acid, 5-methyl-, 2-([3-methylphenyl)sulfonyl]hydrazide], for which the IC50 was found to be 2.62 µM in experiment [1] and 250 nM in experiment [2].

Consider `Cc1ccc2oc(C(=O)NNS(=O)(=O)c3ccccc3C)cc2c1` [Example 81, 2-Benzofurancarboxylic acid, 5-methyl-, 2-[2-(methylphenyl)sulfonyl]hydrazide], for which the IC50 was determined as 1.74 µM in experiment [1] and 310 nM in experiment [2].

For the molecule `Cc1ccc2oc(C(=O)NNS(=O)(=O)c3cccc(Cl)c3C)cc2c1` [Example 82, 2-Benzofurancarboxylic acid, 5-methyl-, 2-[(3-chloro-2-methylphenyl)sulfonyl]-hydrazide], the IC50 came to 3.28 µM in experiment [1] and 510 nM in experiment [2].

Take `Cc1ccc2oc(C(=O)NNS(=O)(=O)c3cccc(Br)c3)cc2c1` [Example 83, 2-Benzofurancarboxylic acid, 5-methyl-, 2-[3-(bromophenyl)sulfonyl]hydrazide]: the IC50 in experiment [1] was determined as 9.66 µM; in experiment [2], 870 nM.

For the molecule `Cc1ccc2oc(C(=O)NNS(=O)(=O)c3cccc(Cl)c3)cc2c1` [Example 84, 2-Benzofurancarboxylic acid, 5-methyl-, 2-[(3-chlorophenyl)sulfonyl]hydrazide], the results for the IC50 in experiment [1] and in experiment [2] were 6.13 µM and 970 nM, respectively.

On to `Cc1ccc2oc(C(=O)NNS(=O)(=O)c3ccccc3OC(F)(F)F)cc2c1` [Example 85, 2-Benzofurancarboxylic acid, 5-methyl-, 2-[[2-(trifluoromethoxy)phenyl]-sulfonyl]hydrazide], for which the IC50 in experiment [1] was 21.2 µM; in experiment [2], 1390 nM.

For the molecule `Cc1cccc2cc(C(=O)NNS(=O)(=O)c3ccccc3)oc12` [Example 86, 2-Benzofurancarboxylic acid, 7-methyl-, 2-(phenylsulfonyl)hydrazide], the figures for the IC50 in experiment [1] and in experiment [2] were 15.2 µM and 240 nM, respectively.

Consider `Cc1cccc2oc(C(=O)NNS(=O)(=O)c3ccccc3)cc12` [Example 87, 2-Benzofurancarboxylic acid, 4-methyl-, 2-(phenylsulfonyl)hydrazide], for which the IC50 in experiment [1] came to 41.1 µM; in experiment [2] it was 1160 nM.

`Cc1c(C(=O)NNS(=O)(=O)c2ccccc2)oc2ccccc12` [Example 88, 2-Benzofurancarboxylic acid, 3-methyl-, 2-(phenylsulfonyl)hydrazide]: the figures for the IC50 in experiment [1] and in experiment [2] were 40 µM and 4000 nM, respectively.

Take `Cc1ccc2oc(C(=O)NNS(=O)(=O)c3ccccc3)c(C)c2c1` [Example 89, 2-Benzofurancarboxylic acid, 3,5-dimethyl-, 2-(phenylsulfonyl)hydrazide]: the IC50 was more than 100 µM in experiment [1] and more than 100000 nM in experiment [2].

With `Cc1c(C(=O)NNS(=O)(=O)c2ccccc2)oc2ccc(Cl)cc12` [Example 90, 2-Benzofurancarboxylic acid, 5-chloro-3-methyl, 2-(phenylsulfonyl)hydrazide], the IC50 in experiment [1] was more than 100 µM; in experiment [2], more than 100000 nM.

On to `Nc1ccc2oc(C(=O)NNS(=O)(=O)c3ccccc3)cc2c1` [Example 91, 2-Benzofurancarboxylic acid, 5-amino-, 2-(phenylsulfonyl)hydrazide], for which the IC50 in experiment [1] amounted to 19.6 µM; in experiment [2], 110 nM.
